Assay results from patent US12559492B2, “BRAF degraders” (C4 Therapeutics, Inc., priority 2020, dated 2026).

Target: BRAF^V600E protein (Homo sapiens, UniProt P15056, V600E)
Assay: HiBiT cellular BRAF V600E degradation assay
Format: cell-based
Settings: 24 h incubation; for DC50: A375.10 cells (HiBiT tag knocked in at N-terminal of BRAF V600E), concentration at which 50% of total cellular BRAF V600E is degraded; for Emax: A375.10 cells, Emax = amount of residual protein remaining in the cell after compound treatment, read-out: HiBit 24 h Emax

BRAF^V600E protein, sequence (P15056 whole entry V600E): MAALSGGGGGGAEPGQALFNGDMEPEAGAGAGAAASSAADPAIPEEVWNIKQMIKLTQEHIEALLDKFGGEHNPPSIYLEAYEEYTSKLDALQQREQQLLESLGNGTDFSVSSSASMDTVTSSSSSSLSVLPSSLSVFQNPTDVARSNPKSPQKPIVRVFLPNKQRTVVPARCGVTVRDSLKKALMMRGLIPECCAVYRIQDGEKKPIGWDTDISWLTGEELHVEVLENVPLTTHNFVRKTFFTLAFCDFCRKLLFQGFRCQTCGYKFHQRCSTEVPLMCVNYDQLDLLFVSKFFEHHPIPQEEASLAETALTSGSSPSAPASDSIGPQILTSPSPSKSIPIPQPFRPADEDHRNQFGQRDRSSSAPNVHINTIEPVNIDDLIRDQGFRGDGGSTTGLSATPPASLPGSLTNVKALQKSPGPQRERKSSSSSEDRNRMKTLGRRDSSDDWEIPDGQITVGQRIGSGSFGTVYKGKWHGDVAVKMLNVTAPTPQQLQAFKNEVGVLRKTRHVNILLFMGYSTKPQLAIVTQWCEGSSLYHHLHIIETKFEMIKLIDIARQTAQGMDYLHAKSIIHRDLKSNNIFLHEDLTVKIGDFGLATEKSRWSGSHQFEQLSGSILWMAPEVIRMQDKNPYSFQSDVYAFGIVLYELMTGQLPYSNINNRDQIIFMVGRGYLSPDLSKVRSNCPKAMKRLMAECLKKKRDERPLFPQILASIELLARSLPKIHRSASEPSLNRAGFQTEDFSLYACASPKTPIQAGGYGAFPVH

SMILES | DC50 | Emax
CCN(C)S(=O)(=O)Nc1ccc(F)c(C(=O)c2c[nH]c3ncc(-c4ccc(N5CCN(CCN6CCC(c7ccc(NC8CCC(=O)NC8=O)cc7)CC6)CC5)nc4)cc23)c1F (centres unmarked) [Example 143, 5-[6-[4-[2-[4-[4-[(2,6-dioxo-3-piperidyl)amino]phenyl]-1-piperidyl]ethyl]piperazin-1-yl]-3-pyridyl]-3-[3-[[ethyl(methyl)sulfamoyl]amino]-2,6-difluoro-benzoyl]-1H-pyrrolo[2,3-b]pyridine] | 4.04 nM | 11.5%
CCN(C)S(=O)(=O)Nc1ccc(F)c(C(=O)c2c[nH]c3ncc(-c4ccc(N5CCN(CCN6CCC(c7ccc(OC8CCC(=O)NC8=O)cc7)CC6)CC5)nc4)cc23)c1F (centres unmarked) [Example 144, 5-[6-[4-[2-[4-[4-[(2,6-dioxo-3-piperidyl)oxy]phenyl]-1-piperidyl]ethyl]piperazin-1-yl]-3-pyridyl]-3-[3-[[ethyl(methyl)sulfamoyl]amino]-2,6-difluoro-benzoyl]-1H-pyrrolo[2,3-b]pyridine] | 16.1 nM | 15.6%
CCN(C)S(=O)(=O)Nc1ccc(F)c(C(=O)c2c[nH]c3ncc(-c4cnc(N5CCN(CCN6CCC(c7ccc(NC8CCC(=O)NC8=O)cc7)CC6=O)CC5)nc4)cc23)c1F (centres unmarked) [Example 146, 5-[2-[4-[2-[4-[4-[(2,6-dioxo-3-piperidyl)amino]phenyl]-2-oxo-1-piperidyl]ethyl]piperazin-1-yl]pyrimidin-5-yl]-3-[3-[[ethyl(methyl)sulfamoyl]amino]-2,6-difluoro-benzoyl]-1H-pyrrolo[2,3-b]pyridine] | 14.4 nM | 9.32%
CCN(C)S(=O)(=O)Nc1ccc(F)c(C(=O)c2c[nH]c3ncc(-c4cnc(N5CCc6c(CN7CCC(c8ccc(NC9CCC(=O)NC9=O)cc8)CC7)cccc6C5)nc4)cc23)c1F (centres unmarked) [Example 150, 5-[[4-[4-[(2,6-dioxo-3-piperidyl)amino]phenyl]-1-piperidyl]methyl]-2-[5-[3-[3-[[ethyl(methyl)sulfamoyl]amino]-2,6-difluoro-benzoyl]-1H-pyrrolo[2,3-b]pyridin-5-yl]pyrimidin-2-yl]-3,4-dihydro-1H-isoquinoline] | 32.8 nM | 13.3%
CCN(C)S(=O)(=O)Nc1cccc(C(=O)c2c[nH]c3ncc(-c4ccc(N5CCN(C(=O)NC6CCN(c7ccc(NC8CCC(=O)NC8=O)cc7F)CC6)CC5)nc4)cc23)c1F (centres unmarked) [Example 154, N-[1-[4-[(2,6-dioxo-3-piperidyl)amino]-2-fluoro-phenyl]-4-piperidyl]-4-[5-[3-[3-[[ethyl(methyl)sulfamoyl]amino]-2-fluoro-benzoyl]-1H-pyrrolo[2,3-b]pyridin-5-yl]-2-pyridyl]piperazine-1-carboxamide] | 2.94 nM | 8.25%

Further lines, results first:

DC50 | Emax | SMILES
17.2 nM | 14.6% | CCN(C)S(=O)(=O)Nc1ccc(F)c(C(=O)c2c[nH]c3ncc(-c4ccc(N5CCN(CCN6CCC(c7ccc(OC8CCC(=O)NC8=O)cc7)CC6)C(=O)C5)nc4)cc23)c1F (centres unmarked) [Example 147, 5-[6-[4-[2-[4-[4-[(2,6-dioxo-3-piperidyl)oxy]phenyl]-1-piperidyl]ethyl]-3-oxo-piperazin-1-yl]-3-pyridyl]-3-[3-[[ethyl(methyl)sulfamoyl]amino]-2,6-difluoro-benzoyl]-1H-pyrrolo[2,3-b]pyridine]
19.8 nM | 13.9% | CCN(C)S(=O)(=O)Nc1ccc(F)c(C(=O)c2c[nH]c3ncc(-c4ccc(N5CCN(CCC6CCN(c7ccc(NC8CCC(=O)NC8=O)cc7)CC6)C(=O)C5)nc4)cc23)c1F (centres unmarked) [Example 148, 5-[6-[4-[2-[1-[4-[(2,6-dioxo-3-piperidyl)amino]phenyl]-4-piperidyl]ethyl]-3-oxo-piperazin-1-yl]-3-pyridyl]-3-[3-[[ethyl(methyl)sulfamoyl]amino]-2,6-difluoro-benzoyl]-1H-pyrrolo[2,3-b]pyridine]
9.25 nM | 10.6% | CCN(C)S(=O)(=O)Nc1ccc(F)c(C(=O)c2c[nH]c3ncc(-c4cnc(N5CCC(O)(CCN6CCC(c7ccc(NC8CCC(=O)NC8=O)cc7)CC6)CC5)nc4)cc23)c1F (centres unmarked) [Example 149, 5-[2-[4-[2-[4-[4-[(2,6-dioxo-3-piperidyl)amino]phenyl]-1-piperidyl]ethyl]-4-hydroxy-1-piperidyl]pyrimidin-5-yl]-3-[3-[[ethyl(methyl)sulfamoyl]amino]-2,6-difluoro-benzoyl]-1H-pyrrolo[2,3-b]pyridine]
1.85 nM | 6.38% | CCN(C)S(=O)(=O)Nc1ccc(F)c(C(=O)c2c[nH]c3ncc(-c4cnc(N5CC6(CC(N7CCC(c8ccc(NC9CCC(=O)NC9=O)cc8)CC7)C6)C5)nc4)cc23)c1F (centres unmarked) [Example 151, 5-[2-[6-[4-[4-[(2,6-dioxo-3-piperidyl)amino]phenyl]-1-piperidyl]-2-azaspiro[3.3]heptan-2-yl]pyrimidin-5-yl]-3-[3-[[ethyl(methyl)sulfamoyl]amino]-2,6-difluoro-benzoyl]-1H-pyrrolo[2,3-b]pyridine]
16.6 nM | 11.9% | CCN(C)S(=O)(=O)Nc1ccc(F)c(C(=O)c2c[nH]c3ncc(-c4cnc(N5CCC(n6cc7c(n6)CCN(c6ccc(NC8CCC(=O)NC8=O)cc6)C7)CC5)nc4)cc23)c1F (centres unmarked) [Example 152, 5-[4-[(2,6-dioxo-3-piperidyl)amino]phenyl]-2-[1-[5-[3-[3-[[ethyl(methyl)sulfamoyl]amino]-2,6-difluoro-benzoyl]-1H-pyrrolo[2,3-b]pyridin-5-yl]pyrimidin-2-yl]-4-piperidyl]-6,7-dihydro-4H-pyrazolo[4,3-c]pyridine]
6.33 nM | 10.9% | CCN(C)S(=O)(=O)Nc1ccc(F)c(C(=O)c2c[nH]c3ncc(-c4ccc(N5CCN(C(=O)CC6(O)CCN(c7ccc(NC8CCC(=O)NC8=O)cc7F)CC6)CC5)cc4)cc23)c1Cl (centres unmarked) [Example 155, 3-[2-chloro-3-[[ethyl(methyl)sulfamoyl]amino]-6-fluoro-benzoyl]-5-[4-[4-[2-[1-[4-[(2,6-dioxo-3-piperidyl)amino]-2-fluoro-phenyl]-4-hydroxy-4-piperidyl]acetyl]piperazin-1-yl]phenyl]-1H-pyrrolo[2,3-b]pyridine]
6.82 nM | 9.35% | CCN(C)S(=O)(=O)Nc1cccc(C(=O)c2c[nH]c3ncc(-c4ccc(N5CCN(C(=O)CC6(O)CCN(c7ccc(NC8CCC(=O)NC8=O)cc7Cl)CC6)CC5)nc4)cc23)c1F (centres unmarked) [Example 156, 5-[6-[4-[2-[1-[2-chloro-4-[(2,6-dioxo-3-piperidyl)amino]phenyl]-4-hydroxy-4-piperidyl]acetyl]piperazin-1-yl]-3-pyridyl]-3-[3-[[ethyl(methyl)sulfamoyl]amino]-2-fluoro-benzoyl]-1H-pyrrolo[2,3-b]pyridine]
6.19 nM | 8.52% | CCN(C)S(=O)(=O)Nc1ccc(F)c(C(=O)c2c[nH]c3ncc(-c4cnc(N5CCN(C(=O)CC6(O)CCN(c7ccc(NC8CCC(=O)NC8=O)cc7Cl)CC6)CC5)nc4)cc23)c1F (centres unmarked) [Example 157, 5-[2-[4-[2-[1-[2-chloro-4-[(2,6-dioxo-3-piperidyl)amino]phenyl]-4-hydroxy-4-piperidyl]acetyl]piperazin-1-yl]pyrimidin-5-yl]-3-[3-[[ethyl(methyl)sulfamoyl]amino]-2,6-difluoro-benzoyl]-1H-pyrrolo[2,3-b]pyridine]
